Patent publication EP0368756A1, “Dibenzocycloheptene derivatives, process for their preparation and their use as medicaments” (ROUSSEL-UCLAF, priority 1988, dated 1990)

Columns and labels:
[1] = system: convulsions toniques entrainées par le pentétrazol; assay: Anticonvulsant activity against pentetrazol-induced tonic convulsions; type: in vivo, souris; conditions: sc; mouse; pentetrazol 160 mg/kg s.c. given 1 hour after the product; tonic convulsions noted for 30 minutes; read-out: DA₅₀ ou dose qui diminue de 50 % le nombre de convulsions toniques entrainées par le pentétrazol
Procedure: Activité anticonvulsivante chez la souris.
L'essai est réalisé sur des lots de 10 souris. L'agent convulsivant est le pentétrazol, en solution aqueuse à la dose de 160 mg/kg s.c. sous un volume de 0,5 ml/20 g, administré 1 heure après le produit de l'exemple 7. Les animaux sont isolés et les convulsions toniques sont notées pendant 30 minutes.
La DA₅₀ ou dose qui diminue de 50 % le nombre de convulsions toniques entrainées par le pentétrazol est de 2,3 mg/kg.

[2] = system: couche CA₁ de l'hippocampe; assay: Neuronal protective effect in the hippocampus after stereotaxic quinolinic acid injection; type: in vivo; conditions: anaesthetised rat; 20 mg/kg intraperitoneal 30 min before quinolinic acid (5 micrograms) into right hippocampus; cresyl violet histology one week later
Procedure: Recherche de l'effet protecteur neuronal dans l'hippocampe.
L'essai a été réalisé chez le rat anesthésié. Une injection stéréotaxique d'acide quinolinique (5 microgrammes) est réalisée dans l'hippocampe droit. Le produit à étudier (ou le véhicule seul pour le lot d'animaux témoins) est administré par voie intrapéritonéale 30 minutes auparavant.
Une semaine plus tard, les cerveaux sont prélevés et coupés en tranches fines. Les tranches sont colorées au crésyl violet et photographiées.
Chez les animaux témoins, l'acide quinolinique détruit la couche CA₁ de l'hippocampe droit tandis que l'hippocampe gauche (contrôle) non injecté, est intacte. L'hippocampe gauche des animaux n'a reçu aucun traitement. Chez les animaux ayant reçu une administration de 20 mg/kg du produit de l'exemple 7, par voie intrapéritonéale, la couche CA₁ de l'hippocampe droit est protégée donc identique à celle de l'hippocampe gauche qui n'a pas reçu d'injection d'acide quinolinique.

**Q.** Which results are given for Nc1ccc2c(c1)C1Cc3ccccc3C2N1 (centres unmarked) [exemple 7, 8-amino 10,11-dihydro 5,10-imino 5H-dibenzo[a,d]-cycloheptène]?
**A.** ED50 [1]: 2.3 mg/kg; effet protecteur neuronal dans l'hippocampe [2]: protégée
